17 molecules from patent US9296723B2, “NAMPT inhibitors” (AbbVie Inc., priority 2012, dated 2016) can be followed below.

In experiment [1] the target is T1, NAMPT (Homo sapiens, UniProt P43490). Nature of the experiment: Time-Resolved Fluorescence Resonance Energy Transfer (TR-FRET) Binding Assay of NAMPT. To be noted: 6.8 nM NAMPT, 200 nM probe, equilibrated 3 hours, no substrates. Summed up:
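IC50s come from four-parameter logistic fits of control-normalized Em520/Em495 TR-FRET ratios (Ex 337 nm) against compound concentration. Before reading, enzyme, probe, antibody and compound equilibrated for 3 h at room temperature.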

Experiment [2] addresses T1, NAMPT. The experiment is described as follows: TR-FRET Binding Assay of NAMPT with PRPP. The settings on record: 2 nM NAMPT, 2 nM probe, 200 µM PRPP and 2.5 mM ATP, equilibrated 16 hours. The method, boiled down: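 Substrates present: PRPP at 200 µM and ATP at 2.5 mM, final, alongside 2 nM enzyme, 2 nM tracer and 1 nM terbium anti-His donor in 2% DMSO. A 16-hour equilibration preceded the time-resolved FRET read, allowing compounds to be enzymatically modified.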
(In general: Time-resolved FRET reads energy transfer from a long-lived donor to a nearby acceptor.)

The next experiment has as its system PC3 cells. Nature of the experiment: NAMPT Cell Proliferation Assay (Cell Titer Glo). The experiment is classed as cell-based. To be noted: Homo sapiens, PC-3, 120 h, incubated 5 days, cell viability. Summed up:
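Viability measured by Cell Titer Glo luminescence after 5-day exposure of attached PC3 cells to compound, dosed as 10-fold serial dilutions ([…]) in RPMI/10% FBS at 37 °C and 5% CO2. Percent inhibition fitted to sigmoidal dose-response curves for IC50.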
In general terms: Cellular ATP, detected with luciferase, serves as a proxy for viable cell number.

T1 sequence (P43490 whole entry): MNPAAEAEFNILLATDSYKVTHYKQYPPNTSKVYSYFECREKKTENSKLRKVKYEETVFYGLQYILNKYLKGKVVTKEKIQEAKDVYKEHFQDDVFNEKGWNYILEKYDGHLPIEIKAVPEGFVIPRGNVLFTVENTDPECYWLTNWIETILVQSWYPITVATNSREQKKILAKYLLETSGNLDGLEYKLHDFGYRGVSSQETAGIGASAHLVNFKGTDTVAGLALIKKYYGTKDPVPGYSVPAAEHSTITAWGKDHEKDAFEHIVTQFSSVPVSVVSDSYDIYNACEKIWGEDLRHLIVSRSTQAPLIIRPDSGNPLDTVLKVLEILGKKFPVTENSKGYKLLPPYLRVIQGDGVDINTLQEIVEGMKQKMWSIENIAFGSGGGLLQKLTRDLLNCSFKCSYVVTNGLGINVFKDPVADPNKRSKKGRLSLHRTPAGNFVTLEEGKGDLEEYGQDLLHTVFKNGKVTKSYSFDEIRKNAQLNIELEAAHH

The IC50 is the midpoint of a concentration-inhibition curve. Lower therefore signals higher potency. Turning to `CCC(C)CC(=O)N1CC(c2ccc(NC(=O)N3CC(c4cccnc4)C3)cc2)C1` (stereo not drawn) [Example 202, N-{4-[1-(3-methylpentanoyl)azetidin-3-yl]phenyl}-3-(pyridin-3-yl)azetidine-1-carboxamide], the concentration for half-maximal inhibition (IC50) stood at 51.1 nM at NAMPT [1], 0.327 nM on NAMPT [2] and 65.5 nM in the experiment with PC3 cells.

For the molecule `CCC(=O)N1CCC(c2ccc(NC(=O)N3CC(c4cccnc4)C3)cc2)CC1` [Example 192, N-[4-(1-propanoylpiperidin-4-yl)phenyl]-3-(pyridin-3-yl)azetidine-1-carboxamide], the IC50 on NAMPT [1] worked out at 23 nM; at NAMPT [2] it was 0.255 nM; in the experiment on PC3 cells, 63.2 nM.

On to `COCCOCC(=O)N1CC=C(c2ccc(NC(=O)N3CC(c4cccnc4)C3)cc2)CC1` [Example 23, N-(4-{1-[(2-methoxyethoxy)acetyl]-1,2,3,6-tetrahydropyridin-4-yl}phenyl)-3-(pyridin-3-yl)azetidine-1-carboxamide], for which the IC50 came out at 97.8 nM on NAMPT [1], 0.551 nM on NAMPT [2] and 195 nM in the experiment with PC3 cells.

As for `CC(C)(C)OC(=O)N1CCC(c2ccc(NC(=O)N3CC(c4cccnc4Cl)C3)cc2)CC1` [Example 112, tert-butyl 4-[4-({[3-(2-chloropyridin-3-yl)azetidin-1-yl]carbonyl}amino)phenyl]piperidine-1-carboxylate], the results for the IC50 on NAMPT [1], at NAMPT [2] and in the experiment with PC3 cells were 43.5 nM, 45.9 nM and 906 nM, respectively.

Take `O=C(CN1CCCC1)N1CC[C@@H](Oc2ccc(NC(=O)N3CC(c4cccnc4)C3)cc2)C1` [Example 304, 3-(pyridin-3-yl)-N-(4-{[(3R)-1-(pyrrolidin-1-ylacetyl)pyrrolidin-3-yl]oxy}phenyl)azetidine-1-carboxamide]: the results for the IC50 on NAMPT [1], at NAMPT [2] and in the experiment with PC3 cells were 594 nM, 0.343 nM and 262 nM, respectively.

Take `O=C(Nc1ccc(C2=CCN(C(=O)[C@H]3CCCO3)CC2)cc1)N1CC(c2cccnc2)C1` [Example 10, 3-(pyridine-3-yl)-N-(4-{1-[(2R)-tetrahydrofuran-2-ylcarbonyl]-1,2,3,6-tetrahydropyridin-4-yl}phenyl)azetidine-1-carboxamide]: the 50% inhibitory concentration (IC50) at NAMPT [1] was 41.5 nM; on NAMPT [2], 0.25 nM; in the experiment on PC3 cells it was 38.9 nM.

With `CCOCC(=O)N1CCC(Oc2ccc(NC(=O)N3CC(c4cccnc4)C3)cc2)CC1` [Example 46, N-(4-{[1-(ethoxyacetyl)piperidin-4-yl]oxy}phenyl)-3-(pyridin-3-yl)azetidine-1-carboxamide], the IC50 on NAMPT [1] amounted to 93.1 nM; at NAMPT [2] it was 0.226 nM; in the experiment with PC3 cells, 44.2 nM.

Consider `O=C(CN1CCOCC1)N1CCC(c2ccc(NC(=O)N3CC(c4cccnc4)C3)cc2)C1` (stereo not drawn) [Example 263, N-{4-[1-(morpholin-4-ylacetyl)pyrrolidin-3-yl]phenyl}-3-(pyridin-3-yl)azetidine-1-carboxamide], for which the values for the IC50 on NAMPT [1], at NAMPT [2] and in the experiment on PC3 cells were 143 nM, 0.239 nM and 365 nM, respectively.

In the case of `CC(C)(C)CN1CCC(c2ccc(NC(=O)N3CC(c4cccnc4)C3)cc2)CC1` [Example 238, N-{4-[1-(2,2-dimethylpropyl)piperidin-4-yl]phenyl}-3-(pyridin-3-yl)azetidine-1-carboxamide], the figures for the IC50 on NAMPT [1], at NAMPT [2] and with PC3 cells were 4010 nM, 1.41 nM and 746 nM, respectively.

Consider `CC(C)(O)C(=O)N1CCC(Oc2ccc(NC(=O)N3CC(c4cccnc4)C3)cc2)CC1` [Example 7, N-(4-{[1-(2-hydroxy-2-methylpropanoyl)piperidin-4-yl]oxy}phenyl)-3-(pyridin-3-yl)azetidine-1-carboxamide], for which the 50% inhibitory concentration (IC50) worked out at 57.8 nM at NAMPT [1], 0.344 nM at NAMPT [2] and 38.5 nM in the experiment with PC3 cells.

Take `CC[C@H](C)C(=O)N1CC[C@H](Oc2ccc(NC(=O)N3CC(c4cccnc4)C3)cc2)C1` [Example 98, N-[4-({(3S)-1-[(2S)-2-methylbutanoyl]pyrrolidin-3-yl}oxy)phenyl]-3-(pyridin-3-yl)azetidine-1-carboxamide]: the IC50 turned out to be 616 nM at NAMPT [1], 1.19 nM at NAMPT [2] and 70.9 nM in the experiment on PC3 cells.

With `O=C(Nc1ccc(OC2CN(C(=O)C3CCCCC3)C2)cc1)N1CC(c2cccnc2)C1` [Example 139, N-(4-{[1-(cyclohexylcarbonyl)azetidin-3-yl]oxy}phenyl)-3-(pyridin-3-yl)azetidine-1-carboxamide], the IC50 on NAMPT [1] amounted to 14.4 nM; at NAMPT [2] it was 0.442 nM; with PC3 cells, 7.81 nM.

For the molecule `CC(C)CCN1CC(c2ccc(NC(=O)N3CC(c4cccnc4)C3)cc2)C1` [Example 252, N-{4-[1-(3-methylbutyl)azetidin-3-yl]phenyl}-3-(pyridin-3-yl)azetidine-1-carboxamide], the half-inhibitory concentration (IC50) at NAMPT [1] amounted to 526 nM; on NAMPT [2], 0.296 nM; in the experiment with PC3 cells, 401 nM.

In the case of `O=C(CN1CCCC1)N1CCC(c2ccc(NC(=O)N3CC(c4cccnc4)C3)cc2)CC1` [Example 194, 3-(pyridin-3-yl)-N-{4-[1-(pyrrolidin-1-ylacetyl)piperidin-4-yl]phenyl}azetidine-1-carboxamide], the figures for the IC50 at NAMPT [1], at NAMPT [2] and in the experiment on PC3 cells were 248 nM, 0.592 nM and 690 nM, respectively.

Consider `O=C(Nc1ccc(O[C@@H]2CCN(C(=O)C3CCCC3)C2)cc1)N1CC(c2cccnc2)C1` [Example 334, N-(4-{[(3R)-1-(cyclopentylcarbonyl)pyrrolidin-3-yl]oxy}phenyl)-3-(pyridin-3-yl)azetidine-1-carboxamide], for which the results for the IC50 on NAMPT [1], on NAMPT [2] and in the experiment on PC3 cells were 94.9 nM, 0.449 nM and 32.4 nM, respectively.

On to `O=C(CC1CCCCC1)N1CCC(c2ccc(NC(=O)N3CC(c4cccnc4)C3)cc2)CC1` [Example 178, N-{4-[1-(cyclohexylacetyl)piperidin-4-yl]phenyl}-3-(pyridin-3-yl)azetidine-1-carboxamide], for which the IC50 is 13.9 nM at NAMPT [1], 0.42 nM on NAMPT [2] and 75 nM in the experiment with PC3 cells.

For `CCCC(=O)N1CC(Oc2ccc(NC(=O)N3CC(c4cccnc4)C3)cc2)C1` [Example 129, N-{4-[(1-butanoylazetidin-3-yl)oxy]phenyl}-3-(pyridin-3-yl)azetidine-1-carboxamide], the half-inhibitory concentration (IC50) stood at 40 nM on NAMPT [1], 0.401 nM on NAMPT [2] and 11.3 nM with PC3 cells.
